# Data taken from article PMC10905675, “INX-315, a Selective CDK2 Inhibitor, Induces Cell Cycle Arrest and Senescence in Solid Tumors” (Cancer Discovery, 2023).
# Like-named read-outs stand apart in the source and are kept apart here.
# Key:
# MCF7 Abema-resistant = assay: Cell number dose-response; format: cell-based; details: Homo sapiens, MCF7, read-out: IC50 (nmol/L): MCF7
# Excerpt: (§1) MCF7 abemaciclib-resistant cells were generated by continuous treatment with abemaciclib at a concentration of 250 nmol/L for 72 days, followed by 500 nmol/L for 48 days. MCF7 fulvestrant-resistant cells were generated by continuous treatment of 100 nmol/L Fulvestrant for 125 days. MCF7 abemaciclib/fulvestrant-resistant cells were generated by treating abemaciclib-resistant cells continuously with 100 nmol/L fulvestrant for 137 days. T47D abemaciclib-resistant lines were generated by continuous treatment with abemaciclib at a concentration of 500 nmol/L for 73 days. T47D fulvestrant–resistant cells were generated by continuous treatment with 100 nmol/L fulvestrant for 68 days. T47D abemaciclib/fulvestrant-resistant cells were generated by treating abemaciclib-resistant cells with continuous treatment of 100 nmol/L Fulvestrant for 60 days. Resistant cell lines were cultured in medium containing drug(s) that the line is resistant to and further authenticated using short tandem repeat profiling.
# (§2) An exception to this is MCF7PDRCl5-1 cells which were first cultured for 5 days without palbociclib then plated as described. MCF7PDRCl5-1 cells were treated with either a dose curve of the indicated CDK4/6i or a dose curve of INX-315 + 1 µmol/L of the indicated CDK4/6i. Cell viability was determined using the CellTiter-Glo assay (Promega, G9241) following manufacturer's instructions. Plates were processed on either BioTek Synergy2 multi-mode (Agilent) or ClarioSTAR (BMG Labtech) plate readers. T47D and MCF7 cells were seeded into […] plates using BioTek 406 (Aglient) and treated with a ten-point dose concentration from 10 µmol/L to 0.3 nmol/L of INX-315 for 2× doubling times. Plates were fixed with 4% PFA and stained with Rhodamine-Phalloidin (Bio-Trend, 00027) and DAPI (5 mg/mL, Invitrogen, catalog no. D1306). Plates were imaged using CellInsight CX7 LZR and DAPI-positive cells were counted using Thermo Fisher Scientific HCS Studio Cell Analysis Software.
# T47D Fulv-resistant = assay: Cell number dose-response; format: cell-based; details: Homo sapiens, read-out: IC50 (nmol/L): T47D
# Excerpt: as §1, §2
# MCF7 Fulv-resistant = assay: Cell number dose-response; format: cell-based; details: Homo sapiens, MCF7, read-out: IC50 (nmol/L): MCF7
# Excerpt: as §1, §2
# T47D Abema-resistant = assay: Cell number dose-response; format: cell-based; details: Homo sapiens, read-out: IC50 (nmol/L): T47D
# Excerpt: as §1, §2
# T47D Parent = assay: Cell number dose-response; format: cell-based; details: Homo sapiens
# Excerpt: as §1, §2
# MCF7 Parent = assay: Cell number dose-response; format: cell-based; details: Homo sapiens
# Excerpt: as §1, §2
# [1] = system: five lines without CCNE1 amplification (ovarian cancer); assay: CellTiter Glo viability assay; format: cell-based; details: 144 h, six days
# CDK2/cyclin A1/E1/O = CDK2/cyclin A1/E1/O (Homo sapiens, UniProt P24941); assay: SelectScreen follow-up dose-response; format: biochemical; details: dose-response 50 pmol/L to 1 µmol/L
# Excerpt: (§3) INX-315 was first evaluated in the SelectScreen Biochemical Kinase Profiling at Thermo Fisher Scientific (Madison, WI). The primary screen consisted of INX-315 dosed at a single concentration of 100 nmol/L in 1% DMSO across each platform within the SelectScreen array of assays, LanthaScreen Eu Kinase Binding Assay; AdaptaScreen; and Z'LyteScreen using preestablished conditions at Thermo Fisher Scientific as shown in Supplementary Table S2. […] The follow-up screen consisted of 10-point dose–response curves for INX-315 from 1 µmol/L to 0.0495 nmol/L.
# CSF1R = CSF1R (Homo sapiens, UniProt P07333); assay: SelectScreen follow-up dose-response; format: biochemical; details: dose-response 50 pmol/L to 1 µmol/L
# Excerpt: as §3
# all other targets = assay: SelectScreen follow-up dose-response; format: biochemical; details: dose-response 50 pmol/L to 1 µmol/L; kinases with ≥80% inhibition other than CDK2 complexes and CSF1R
# Excerpt: as §3
# KIT V559D V654A = target: T1, KIT V559D V654A (Homo sapiens, UniProt P10721, V559D/V654A); assay: SelectScreen ZLYTE; format: biochemical; details: INX-0315 at 100nM
# T1 construct: purchased Thermo Fisher Scientific SelectScreen (plus Nanosyn / Reaction Biology for CDK/cyclin lines)
# Procedure, shortened: (§4)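 INX-315, single point 100 nmol/L, 1% DMSO; then 10-pt titration 1 µmol/L → 0.0495 nmol/L. Standard vendor conditions.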
# NTRK1 (TRKA) = target: T2, NTRK1 (TRKA) (Homo sapiens, UniProt P04629); assay: SelectScreen ZLYTE; format: biochemical; details: INX-0315 at 100nM
# T2 construct: purchased Thermo Fisher Scientific SelectScreen (plus Nanosyn / Reaction Biology for CDK/cyclin lines)
# Procedure, shortened: as §4
# NTRK2 (TRKB) = target: T3, NTRK2 (TRKB) (Homo sapiens, UniProt Q16620); assay: SelectScreen ZLYTE; format: biochemical; details: INX-0315 at 100nM
# T3 construct: purchased Thermo Fisher Scientific SelectScreen (plus Nanosyn / Reaction Biology for CDK/cyclin lines)
# Procedure, shortened: as §4
# FGFR1 = target: T4, FGFR1 (Homo sapiens, UniProt P11362); assay: SelectScreen ZLYTE; format: biochemical; details: INX-0315 at 100nM
# T4 construct: purchased Thermo Fisher Scientific SelectScreen (plus Nanosyn / Reaction Biology for CDK/cyclin lines)
# Procedure, shortened: as §4
# EPHA8 = target: T5, EPHA8 (Homo sapiens, UniProt P29322); assay: SelectScreen ZLYTE; format: biochemical; details: INX-0315 at 100nM
# T5 construct: purchased Thermo Fisher Scientific SelectScreen (plus Nanosyn / Reaction Biology for CDK/cyclin lines)
# Procedure, shortened: as §4
# AMPK (A2/B2/G3) = target: T6, AMPK (A2/B2/G3) (Homo sapiens, UniProt P54646); assay: SelectScreen ZLYTE; format: biochemical; details: INX-0315 at 100nM
# T6 construct: purchased Thermo Fisher Scientific SelectScreen (plus Nanosyn / Reaction Biology for CDK/cyclin lines)
# Procedure, shortened: as §4
# [2] = target: T7, CSNK1E (CK1 epsilon) R178C (Homo sapiens, UniProt P49674, R178C); assay: SelectScreen ZLYTE; format: biochemical; details: INX-0315 at 100nM
# T7 construct: purchased Thermo Fisher Scientific SelectScreen (plus Nanosyn / Reaction Biology for CDK/cyclin lines)
# Procedure, shortened: as §4
# NTRK3 (TRKC) = target: T8, NTRK3 (TRKC) (Homo sapiens, UniProt Q16288); assay: SelectScreen ZLYTE; format: biochemical; details: INX-0315 at 100nM
# T8 construct: purchased Thermo Fisher Scientific SelectScreen (plus Nanosyn / Reaction Biology for CDK/cyclin lines)
# Procedure, shortened: as §4
# MAPK13 (p38 delta) = target: T9, MAPK13 (p38 delta) (Homo sapiens, UniProt O15264); assay: SelectScreen ZLYTE; format: biochemical; details: INX-0315 at 100nM
# T9 construct: purchased Thermo Fisher Scientific SelectScreen (plus Nanosyn / Reaction Biology for CDK/cyclin lines)
# Procedure, shortened: as §4
# ITK = target: T10, ITK (Homo sapiens, UniProt Q08881); assay: SelectScreen ZLYTE; format: biochemical; details: INX-0315 at 100nM
# T10 construct: purchased Thermo Fisher Scientific SelectScreen (plus Nanosyn / Reaction Biology for CDK/cyclin lines)
# Procedure, shortened: as §4
# PIM3 = target: T11, PIM3 (Homo sapiens, UniProt Q86V86); assay: SelectScreen ZLYTE; format: biochemical; details: INX-0315 at 100nM
# T11 construct: purchased Thermo Fisher Scientific SelectScreen (plus Nanosyn / Reaction Biology for CDK/cyclin lines)
# Procedure, shortened: as §4
# TYRO3 (RSE) = target: T12, TYRO3 (RSE) (Homo sapiens, UniProt Q06418); assay: SelectScreen ZLYTE; format: biochemical; details: INX-0315 at 100nM
# T12 construct: purchased Thermo Fisher Scientific SelectScreen (plus Nanosyn / Reaction Biology for CDK/cyclin lines)
# Procedure, shortened: as §4
# ROCK1 = target: T13, ROCK1 (Homo sapiens, UniProt Q13464); assay: SelectScreen ZLYTE; format: biochemical; details: INX-0315 at 100nM
# T13 construct: purchased Thermo Fisher Scientific SelectScreen (plus Nanosyn / Reaction Biology for CDK/cyclin lines)
# Procedure, shortened: as §4
# RET A883F = target: T14, RET A883F (Homo sapiens, UniProt P07949, A883F); assay: SelectScreen ZLYTE; format: biochemical; details: INX-0315 at 100nM
# T14 construct: purchased Thermo Fisher Scientific SelectScreen (plus Nanosyn / Reaction Biology for CDK/cyclin lines)
# Procedure, shortened: as §4
# T1 sequence (P10721 26-976 V559D/V654A): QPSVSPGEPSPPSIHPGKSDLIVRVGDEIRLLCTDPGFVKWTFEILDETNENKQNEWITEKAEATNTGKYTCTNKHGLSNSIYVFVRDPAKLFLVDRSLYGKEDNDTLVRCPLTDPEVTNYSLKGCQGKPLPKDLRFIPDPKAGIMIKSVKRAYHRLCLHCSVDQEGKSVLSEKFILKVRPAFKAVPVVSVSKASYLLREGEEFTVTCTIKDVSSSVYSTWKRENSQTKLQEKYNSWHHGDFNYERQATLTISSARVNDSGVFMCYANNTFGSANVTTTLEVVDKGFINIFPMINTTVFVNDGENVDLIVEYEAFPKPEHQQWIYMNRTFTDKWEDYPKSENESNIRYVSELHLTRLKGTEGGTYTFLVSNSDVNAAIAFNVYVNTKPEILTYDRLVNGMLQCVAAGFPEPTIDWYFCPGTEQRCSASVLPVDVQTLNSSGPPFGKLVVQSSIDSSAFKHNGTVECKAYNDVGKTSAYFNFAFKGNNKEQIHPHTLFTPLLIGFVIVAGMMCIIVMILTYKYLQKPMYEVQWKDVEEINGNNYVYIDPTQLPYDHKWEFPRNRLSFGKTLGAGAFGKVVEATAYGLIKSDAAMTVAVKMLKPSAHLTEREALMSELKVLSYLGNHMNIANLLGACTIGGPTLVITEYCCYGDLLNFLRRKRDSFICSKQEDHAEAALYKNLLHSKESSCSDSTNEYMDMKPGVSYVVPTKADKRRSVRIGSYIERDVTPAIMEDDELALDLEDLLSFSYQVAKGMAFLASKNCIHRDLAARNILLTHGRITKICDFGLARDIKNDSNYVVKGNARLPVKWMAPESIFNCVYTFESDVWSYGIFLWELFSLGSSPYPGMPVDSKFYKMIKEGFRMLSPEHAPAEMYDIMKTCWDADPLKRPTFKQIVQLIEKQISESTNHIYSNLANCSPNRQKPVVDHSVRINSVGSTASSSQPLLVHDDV
# T14 sequence (P07949 29-1114 A883F): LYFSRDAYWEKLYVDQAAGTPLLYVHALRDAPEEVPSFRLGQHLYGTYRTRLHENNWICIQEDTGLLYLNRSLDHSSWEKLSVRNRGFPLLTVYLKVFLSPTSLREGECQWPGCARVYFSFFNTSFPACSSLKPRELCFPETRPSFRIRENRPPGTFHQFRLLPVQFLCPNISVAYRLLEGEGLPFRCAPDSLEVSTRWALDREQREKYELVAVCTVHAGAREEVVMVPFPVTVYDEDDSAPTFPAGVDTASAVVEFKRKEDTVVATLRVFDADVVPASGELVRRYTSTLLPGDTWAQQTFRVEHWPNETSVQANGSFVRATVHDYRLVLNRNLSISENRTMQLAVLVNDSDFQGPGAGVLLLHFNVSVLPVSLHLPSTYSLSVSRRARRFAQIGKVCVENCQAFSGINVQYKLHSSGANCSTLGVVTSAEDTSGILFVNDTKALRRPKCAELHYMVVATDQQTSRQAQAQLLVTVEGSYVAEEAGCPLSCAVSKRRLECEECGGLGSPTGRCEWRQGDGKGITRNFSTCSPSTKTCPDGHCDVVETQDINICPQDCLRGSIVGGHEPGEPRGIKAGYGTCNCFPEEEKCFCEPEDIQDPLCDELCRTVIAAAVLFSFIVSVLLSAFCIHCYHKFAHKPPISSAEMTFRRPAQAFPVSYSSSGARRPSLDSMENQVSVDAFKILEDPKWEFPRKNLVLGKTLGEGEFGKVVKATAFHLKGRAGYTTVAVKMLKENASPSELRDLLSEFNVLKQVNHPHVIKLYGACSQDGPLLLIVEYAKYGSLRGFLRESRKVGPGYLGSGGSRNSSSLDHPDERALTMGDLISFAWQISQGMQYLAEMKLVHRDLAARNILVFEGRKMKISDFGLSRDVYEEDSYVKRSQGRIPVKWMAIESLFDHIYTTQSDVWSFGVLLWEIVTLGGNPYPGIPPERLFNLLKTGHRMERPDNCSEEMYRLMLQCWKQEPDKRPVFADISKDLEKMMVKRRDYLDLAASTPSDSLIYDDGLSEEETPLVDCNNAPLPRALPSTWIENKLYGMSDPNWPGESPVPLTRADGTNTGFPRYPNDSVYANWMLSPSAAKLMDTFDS
# T6 sequence (P54646 whole entry): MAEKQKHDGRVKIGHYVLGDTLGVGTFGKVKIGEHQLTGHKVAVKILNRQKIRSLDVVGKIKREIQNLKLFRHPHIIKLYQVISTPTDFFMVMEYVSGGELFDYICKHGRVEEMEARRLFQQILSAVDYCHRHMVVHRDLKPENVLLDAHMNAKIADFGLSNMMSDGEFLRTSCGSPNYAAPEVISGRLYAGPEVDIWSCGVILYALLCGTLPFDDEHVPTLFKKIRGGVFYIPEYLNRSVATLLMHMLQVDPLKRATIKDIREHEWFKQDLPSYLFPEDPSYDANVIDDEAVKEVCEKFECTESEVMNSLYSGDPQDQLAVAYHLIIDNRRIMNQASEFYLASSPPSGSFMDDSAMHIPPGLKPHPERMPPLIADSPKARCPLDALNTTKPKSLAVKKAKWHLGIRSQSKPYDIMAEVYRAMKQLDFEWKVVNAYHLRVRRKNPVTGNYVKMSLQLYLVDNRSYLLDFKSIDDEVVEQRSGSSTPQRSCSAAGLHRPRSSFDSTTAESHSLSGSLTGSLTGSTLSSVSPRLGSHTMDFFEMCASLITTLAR
# T6 sequence (O43741 whole entry partner): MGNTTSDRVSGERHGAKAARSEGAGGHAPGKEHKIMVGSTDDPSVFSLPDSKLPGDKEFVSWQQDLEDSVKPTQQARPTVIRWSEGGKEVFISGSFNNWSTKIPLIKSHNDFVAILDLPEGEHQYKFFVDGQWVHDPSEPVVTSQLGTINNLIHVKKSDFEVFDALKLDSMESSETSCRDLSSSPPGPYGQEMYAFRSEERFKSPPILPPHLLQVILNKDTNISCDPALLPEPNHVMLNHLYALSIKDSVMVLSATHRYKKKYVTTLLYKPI
# T6 sequence (Q9UGI9 whole entry partner): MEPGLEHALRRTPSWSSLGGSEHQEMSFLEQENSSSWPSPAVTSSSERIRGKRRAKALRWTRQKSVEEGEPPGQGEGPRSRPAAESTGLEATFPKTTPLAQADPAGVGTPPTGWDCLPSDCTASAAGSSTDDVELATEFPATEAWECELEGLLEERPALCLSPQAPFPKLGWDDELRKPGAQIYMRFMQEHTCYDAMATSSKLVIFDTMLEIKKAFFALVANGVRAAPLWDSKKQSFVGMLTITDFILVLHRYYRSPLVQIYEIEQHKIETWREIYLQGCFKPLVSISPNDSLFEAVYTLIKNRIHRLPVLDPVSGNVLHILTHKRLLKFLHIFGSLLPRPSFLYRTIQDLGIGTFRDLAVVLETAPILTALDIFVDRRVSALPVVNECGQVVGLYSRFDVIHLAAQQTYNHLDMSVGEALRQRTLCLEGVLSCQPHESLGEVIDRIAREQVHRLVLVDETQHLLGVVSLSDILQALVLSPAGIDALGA
# T2 sequence (P04629 33-796): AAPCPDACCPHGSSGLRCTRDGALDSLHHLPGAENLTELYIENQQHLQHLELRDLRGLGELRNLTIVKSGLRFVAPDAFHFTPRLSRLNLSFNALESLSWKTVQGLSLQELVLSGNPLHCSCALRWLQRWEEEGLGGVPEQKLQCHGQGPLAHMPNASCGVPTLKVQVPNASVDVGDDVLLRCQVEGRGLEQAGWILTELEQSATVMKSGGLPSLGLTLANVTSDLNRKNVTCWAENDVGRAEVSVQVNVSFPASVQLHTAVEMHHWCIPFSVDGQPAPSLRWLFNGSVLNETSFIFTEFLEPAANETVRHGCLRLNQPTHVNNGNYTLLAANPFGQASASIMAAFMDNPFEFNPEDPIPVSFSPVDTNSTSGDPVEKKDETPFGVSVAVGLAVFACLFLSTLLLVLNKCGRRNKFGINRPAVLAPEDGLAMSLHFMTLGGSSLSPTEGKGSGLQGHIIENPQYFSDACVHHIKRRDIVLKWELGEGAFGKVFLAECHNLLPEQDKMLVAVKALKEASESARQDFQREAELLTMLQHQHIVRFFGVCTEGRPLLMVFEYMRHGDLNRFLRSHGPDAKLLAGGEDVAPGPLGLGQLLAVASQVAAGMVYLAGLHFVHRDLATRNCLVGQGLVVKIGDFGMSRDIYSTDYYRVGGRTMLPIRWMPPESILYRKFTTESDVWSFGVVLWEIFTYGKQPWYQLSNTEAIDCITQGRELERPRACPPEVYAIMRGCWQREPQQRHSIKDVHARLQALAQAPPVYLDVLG
# T10 sequence (Q08881 whole entry): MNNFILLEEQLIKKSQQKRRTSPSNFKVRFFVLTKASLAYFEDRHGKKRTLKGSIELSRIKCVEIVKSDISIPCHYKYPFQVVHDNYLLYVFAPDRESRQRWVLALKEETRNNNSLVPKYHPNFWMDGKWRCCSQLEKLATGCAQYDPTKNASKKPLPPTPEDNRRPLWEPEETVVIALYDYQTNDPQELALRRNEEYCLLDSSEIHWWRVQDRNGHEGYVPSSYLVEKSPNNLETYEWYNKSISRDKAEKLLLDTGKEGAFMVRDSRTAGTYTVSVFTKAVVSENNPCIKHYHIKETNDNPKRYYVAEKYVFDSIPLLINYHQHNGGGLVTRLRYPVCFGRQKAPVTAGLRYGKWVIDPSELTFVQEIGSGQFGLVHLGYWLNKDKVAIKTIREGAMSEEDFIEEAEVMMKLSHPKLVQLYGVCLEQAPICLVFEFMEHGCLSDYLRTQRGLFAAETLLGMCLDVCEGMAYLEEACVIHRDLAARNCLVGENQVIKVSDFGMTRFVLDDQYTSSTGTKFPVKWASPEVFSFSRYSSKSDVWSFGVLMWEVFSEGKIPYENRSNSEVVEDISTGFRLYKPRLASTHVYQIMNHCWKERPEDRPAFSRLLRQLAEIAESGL
structure (smiles),measurement,setting,value
NS(=O)(=O)c1ccc(Nc2ncc3cc4n(c3n2)C2(CCCCC2)C(=O)NN4)cc1 [INX-315],IC50,MCF7 Abema-resistant,45 nmol/L
same,IC50,T47D Fulv-resistant,106 nmol/L
same,IC50,MCF7 Fulv-resistant,3470 nmol/L
same,IC50,T47D Abema-resistant,7.4 nmol/L
same,IC50,"T47D Parent; read-out: IC50 (nmol/L): T47D, Parent + abema: 500 nmol/L abemaciclib concurrently",332 nmol/L
same,IC50,"T47D Parent; read-out: IC50 (nmol/L): T47D, Parent cells in DMSO",360 nmol/L
same,IC50,"MCF7 Parent; MCF7, read-out: IC50 (nmol/L): MCF7, Parent + abema: 500 nmol/L abemaciclib concurrently",515 nmol/L
same,IC50,"MCF7 Parent; MCF7, read-out: IC50 (nmol/L): MCF7, Parent cells in DMSO",267 nmol/L
same,IC50,"[1]; read-out: IC50, range",159 to 3560 nM
same,IC50,[1]; read-out: mean IC50,1440 nM
same,IC50,CDK2/cyclin A1/E1/O,≤ 4 nM
same,IC50,CSF1R,2.29 nM
same,IC50,all other targets,> 10 nM
same,inhibition at 0.1 µM,KIT V559D V654A,7%
same,inhibition at 0.1 µM,NTRK1 (TRKA),44%
same,inhibition at 0.1 µM,NTRK2 (TRKB),52%
same,inhibition at 0.1 µM,FGFR1,4%
same,inhibition at 0.1 µM,EPHA8,16%
same,inhibition at 0.1 µM,AMPK (A2/B2/G3),32%
same,inhibition at 0.1 µM,[2],5%
same,inhibition at 0.1 µM,NTRK3 (TRKC),84%
same,inhibition at 0.1 µM,MAPK13 (p38 delta),5%
same,inhibition at 0.1 µM,ITK,5%
same,inhibition at 0.1 µM,PIM3,8%
same,inhibition at 0.1 µM,TYRO3 (RSE),14%
same,inhibition at 0.1 µM,ROCK1,5%
same,inhibition at 0.1 µM,RET A883F,22%
